Values quoted from earlier work as cited in patent US4242298A, “Polysaccharide ester membrane clearing process” (priority 1979, dated 1980).
Where two headings read alike, the source gives them in different places.

Assays:
rat [1] = details: inhalation
rat [2] = details: oral
rats [3] = details: 6 hours
rats [4] = details: number of hours not given
rats [5] = details: 2000 ppm, 8 hours

In the case of `O=C1CCCCC1` [Cyclohexanone, reference compound], the LCLo (rat [1]; 4H) is listed as 2000 ppm and the LD50 (rat [2]) is listed as 1620 mg/kg.
For `CCOCCO` [2-ethoxyethanol], the LCLo (rat [1]; 4H) is listed as 4000 ppm and the LD50 (rat [2]) is listed as 3000 mg/kg.
For `COC(=O)CC(C)=O` [methyl acetoacetate], the LD50 (rat [2]) is given as 3000 mg/kg, the “animal's growth, following exposure” value (rats [3]; 1370 ppm (calculated)) is given as “normal” and the symptoms on exposure (rats [3]; 1370 ppm (calculated)) is given as “no symptoms”. The “lethality on exposure to concentrated vapor” value (rats [4]) was “nonlethal”.
For `CC(=O)CO` [acetol], the lethality on exposure (rats [5]) is given as “nonlethal” and the LD50 (rat [2]) is given as 2200 mg/kg.
In the case of `CC(=O)O` [Acetic Acid, reference compound], the LCLo (rat [1]; 4H) is listed as 1600 ppm.
For `CCOCCOC(C)=O` [2-ethoxyethyl acetate], the LCLo (rat [1]; 8H) is listed as 1500 ppm and the LD50 (rat [2]) is listed as 5100 mg/kg.
For `CCOC(=O)CC(C)=O` [ethyl acetoacetate], the “animal's growth, following exposure” value (rats [3]; 1129 ppm (calculated)) is listed as “normal” and the symptoms on exposure (rats [3]; 1129 ppm (calculated)) is listed as “no symptoms”.
